Reference: US8772243B2, “Methods for predicting the response to anti-cancer treatment with an agonist of TLR7 or an agonist of TLR8” (Inserm (Institut National de la Sante et de la Recherche …, priority 2008, dated 2014)

How the values were obtained:
A549 cells [1] = assay: Tumor cell proliferation assay (Alamar blue reduction); format: cell-based, human; details: 10 μg/ml, ten days
Method: (§1) FIG. 4 TLR7 and 8 induce survival of lung tumor cells. (A) A549 cells were unstimulated, stimulated with loxoribine (10 μg/ml), Poly U (10 μg/ml), or Gardiquimod(10μg/ml) and incubated with Alamar blue for 10 days. Reduction of Alamar blue was then determined by spectrophotometry at 570 and 600 nm. The percentage of reduced Alamar blue was calculated as described by the manufacturer. A549 cells were unstimulated or stimulated with loxoribine, Poly U, Gardiquimod, etoposide, or cycloheximide for 24 h. (B) The percentage of dead cells was determined by Trypan blue exclusion. (C) The DNA content was measured by IP staining after RNAse A treatment. The percentages indicate the proportion of subdiploid (G0/G1) and […]. Data represent mean values±SD from 3 independent experiments (*p<0.05; ** p<0.01, Student test). (D) A549 cells were cultured for 6 h in the presence of loxoribine, Poly U, or Gardiquimod, and the expression of Bcl-2 was assayed using Taq Man Low Density Array technology. The ΔCT values for Bcl-2 expression were calculated by subtraction of the CT value obtained for the 18S housekeeping gene. The ΔΔCT values were obtained by subtraction of ΔCT values for unstimulated cells from those obtained for stimulated cells. The fold increase (arbitrary unit) was obtained by 2^−ΔΔCT.
Human lung cancer cell lines were seeded in 96-well plates (800 cells per well) and left unstimulated or were stimulated with loxoribine, Poly U, or Gardiquimod. The proliferation assay was performed with Alamar blue (AbD Serotec, Cergy Pontoise, France) according to the manufacturer's instructions. Briefly, cells were seeded and stimulated with TLR ligands in 100 μl of medium, and 10 μl of Alamar Blue was added. The optical density in each well was determined at 540 nm and 570 nm after 10 days of culture, and the percentage of reduced Alamar blue was determined. The percentage of reduced Alamar blue in unstimulated cells was determined as 100%, and the percentages of the stimulated cells were determined relative to this value.

A549 cells [2] = assay: Cell cycle analysis (propidium iodide staining); format: cell-based, human; details: PI staining
Method: as §1
A549 cells were cultured in the presence of loxoribine, Poly U, Gardiquimod, etoposide, or cycloheximide. After 48 h, the cells were harvested, washed in cold PBS, and fixed with 2 ml of 70% cold ethanol in PBS for 2 h at 4° C. After centrifugation, the supernatant was removed and the pellet was rinsed with 0.5% PBS Tween. It was then incubated with […] of RNAse A and 50 μg of propidium iodide in PBS. Propidium iodide staining was determined with a FACScalibur cytometer.

[3] = tested on: Bcl-2 expression in A549 cells; assay: Bcl-2 expression, Taq Man Low Density Array, A549; format: cell-based, human; details: 6 h, RT-PCR
Method: as §1, with “The fold increase (arbitrary unit) was obtained by 2^−ΔΔCT.” left out
Total RNA was extracted from A549 or SK-MES cells stimulated with loxoribine, Poly U, or Gardiquimod for 6 h or from purified human lung cancer cells using the RNeasy isolation-kit RNA (Qiagen, Courtaboeuf, France). The integrity and the quantity of the RNA were evaluated with a bioanalyzer-2100 (Agilent Technologies). All samples were assessed for gene expression analysis using the Taq Man Low-Density Array angiogenesis and immune panel (Applied Biosystem). […] Quantitative real-time TaqMan-PCR was performed using Low-Density-Arrays and the 7900 robotic real-time PCR-system (Applied-Biosystems). […] Data were analyzed using the SDS Software v2.2 (Applied-Biosystems). The ΔCT values were calculated for each gene by subtraction of the CT value of the 18S housekeeping gene from the CT of the gene of interest. […]

[4] = tested on: Bcl-2 expression in SCC SK-MES cells; assay: Bcl-2 expression, SK-MES; format: cell-based, human; details: data not shown
Method: (§2) Total RNA was extracted from A549 or SK-MES cells stimulated with loxoribine, Poly U, or Gardiquimod for 6 h or from purified human lung cancer cells using the RNeasy isolation-kit RNA (Qiagen, Courtaboeuf, France). The integrity and the quantity of the RNA were evaluated with a bioanalyzer-2100 (Agilent Technologies). All samples were assessed for gene expression analysis using the Taq Man Low-Density Array angiogenesis and immune panel (Applied Biosystem). The RT-PCR experiments were carried-out according to the manufacturer's instructions (Applied-Biosystems). Quantitative real-time TaqMan-PCR was performed using Low-Density-Arrays and the 7900 robotic real-time PCR-system (Applied-Biosystems). The 18S primers and probes were used as internal controls. Data were analyzed using the SDS Software v2.2 (Applied-Biosystems). The ΔCT values were calculated for each gene by subtraction of the CT value of the 18S housekeeping gene from the CT of the gene of interest. The ΔΔCT values were obtained by subtraction of the ΔCT values for unstimulated cells from the […]. The fold increase (arbitrary unit) was obtained by 2^−ΔΔCT.

A549 and SK-MES cells [5] = assay: Transcriptomic analysis of 182 genes (Taq Man Low Density Array); format: cell-based, human; details: 6 h stimulation; versus unstimulated cells
Method: FIG. 6 TLR7 and 8 induce regulation of gene transcription. A549 or SK-MES cells were cultured for 6 h in the presence of loxoribine, Poly U, or Gardiquimod. Total RNA was extracted and analyzed for the expression of 182 genes using Taq Man Low Density Array technology. All genes with a value greater than 35 (CT) were excluded from the analysis. The ΔCT values for the expression of all genes were calculated by subtraction of the CT value of the 18S housekeeping gene. The ΔΔCT values were obtained by subtraction of the ΔCT values for unstimulated cells from those obtained for TLR7- or 8-stimulated cells. The fold increase (arbitrary unit) was obtained by 2^−ΔΔCT. Values were then clustered using the Genesis Software.
as §2

[6] = tested on: 1549, H1355 and SK-MES cells; assay: Chemoresistance by colony formation assay; format: cell-based, human; details: concentration added on day 12 of colony formation assay
Method: Alternatively, chemoresistance was assessed by the colony formation assay. In this assay, 1549, H1355 and SK-MES cells were seeded in 6-well plates (500 cells per well) and incubated for 15 days at 37° under 5% CO2. The cells were left unstimulated or stimulated 100 μM Loxoribine or with 10 μg/ml single-stranded polyU RNA (InvivoGen) on days 0, 3, 6 and 9. On day 12, different anti-cancer agents were added at the respective LD50 (cisplatin and carboplatin 100 μM, navelbine 50 μM, doxorubicine 2 nM). On day 15, the wells ware washed with PBS, and stained with 6% (vol/vol) glutaraldehyde, 0.5% (wt/vol) crystal violet in water for 30 minutes. The cells were washed and the colonies of more than 50 cells counted. Cell survival was calculated as follows: number of colonies after chemotherapy/number of cells seeded on day 0×plating efficiency, where the plating efficiency is number of colonies/number of cells seeded.

A549 cells [7] = assay: Percentage of dead cells by Trypan blue exclusion; format: cell-based, human; details: 24 h
Method: as §1

A549 and SK-MES cells [8] = assay: Chemoresistance assay (Trypan blue and Alamar blue); format: cell-based, human; details: Alamar blue reduction
Method: FIG. 5 TLR7 and 8 induce chemoresistance of lung tumor cells. A549 (A-C) or SK-MES cells (D-F) were cultured with or without loxoribine or Poly U for 48 h, and then left untreated or were treated with cycloheximide, cisplatine, carboplatine, doxorubicine, or Navelbine. After 36 h, the percentage of dead cells was determined by Trypan blue exclusion (A, D) and cell viability was analyzed by the reduction of Alamar blue (B, C, E and F). Data represent mean values±SD from 3 independent experiments (*p<0.05; **p<0.01, ***p<0.001, Student test).
A549 and SK-MES cells were seeded in 96-well plates (1000 cells per well) and left unstimulated or were stimulated with loxoribine, Poly U, or Gardiquimod for 48 h. Cisplatine, carboplatine, doxorubicine, Navelbine, or cycloheximide was then added for an additional 36 h. The optical density in each well was determined 24 h after the addition of Alamar blue at 540 nm and 570 nm. Alternatively, viable and dead cells were counted using Trypan blue.

[9] = tested on: IκBα (NF-κB activation) in A549 cells; assay: Western blot of IκBα phosphorylation and degradation (NF-κB activation) in A549 cells; format: cell-based, human; details: TNF-α 10 ng/ml
Method: FIG. 3 TLR7 and TLR8 lead to IκBα phosphorylation, but not degradation. A549 cells were untreated or treated with TNF-α (10 ng/ml) (A, B), loxoribine (10 μg/ml) (C, D), or Poly U (10 μg/ml) (E, F) for the indicated periods of time. The cell lysates were analyzed by immunoblot with anti-phospho-specific IκBα, anti-IκBα and anti-actin antibodies (A, C, E). Quantification of the bands was realized using Image J software (B, D, F). Histograms represent the intensity of each band observed in the blots at the indicated time point and are expressed in arbitrary units normalized to actin intensity (relative intensity) both for phospho-IκBα and IκBα. Results are representative of three independent experiments.
A549 cells (1.10^6 cells) were starved for 4 hours in medium containing 2% FCS, and then stimulated with loxoribine, PolyU, or TNFα (10 ng/ml) for different periods of time as indicated. Cells were lysed in 50 mM Tris-HCl, pH 7.5, 150 mM NaCl, 2 mM EDTA, 0.5% triton X100, 2 mM Na3VO4, 10 mM NaF, and 10 mM sodium pyrophosphate supplemented with a complete protease inhibitor cocktail (Boehringer, Paris, France). Protein contents in the cell lysates were quantified using the quick start Bradford protein assay kit (Biorad, Marnes-La-Coquette, France) to ensure that all samples contained similar amounts of protein. Proteins (30 μg) were resolved in 10% Tris-glycine polyacrylamide gels (Invitrogen, Cergy Pontoise, France) and transferred to PVDF immobilon-P membranes (Millipore, Molsheim, France). Blots were probed with monoclonal antibody against phospho-IκBα (Cell Signaling Technology, Danvers, USA), total IκBα, and actin (Santa Cruz, Le Perray en Yvelines, France).
In order to determine if the TLR7 and 8 expressed by lung tumor cell lines were able to induce intracellular signaling pathways, we studied NF-κB activation in response to stimulation with TNFα, loxoribine (homodimeric TLR7 ligand), or Poly U (homodimeric TLR8 ligand). […] In contrast TLR7 or 8 stimulation led to atypical NF-κB activation. […] Furthermore, we also observed that the kinetics of IκBα phosphorylation were dependent on the stimulus. On the one hand, TNFα stimulation induced two waves of IκBα phosphorylation; the first one after ten minutes was associated with IκBα degradation, and the second one after sixty minutes was not associated with IκBα degradation. On the other hand, we observed that TLR stimulation induced only a phosphorylation of IκBα, with a maximum phosphorylation obtained after thirty minutes without degradation of IκBα.

A549 cells [10] = assay: A549 xenograft in NOD/SCID mice; format: in vivo; details: for factor of reduction of tumor size by chemotherapy: cisplatine 2 mg/kg/injection i.p.
Method: Mice were anesthetized by intra-peritoneal injection of a solution containing 3.2 mg of ketamine (Virbac) and 0.16 mg of xylasine (Rompum 2%, Bayer Healthcare) in 80 μl of PBS (Gibco). Five days prior to experimentation, A549 cells were pre-stimulated with 100 μM Loxoribine (Invivogen) or left unstimulated. For each condition 5×10^6 cells were diluted in 250 μl PBS and injected subcutaneously to 5 mice per group and were re-stimulated either with 50 μl PBS or with 100 nmol of Loxoribine diluted in 50 μl PBS. Stimulating injections into the tumor site were carried out on the day the cells were injected and then on days 3, 6 and 9. The mice then received either 120 μA PBS, or a chemotherapy of cisplatine (2 mg/kg/injection diluted in 120 μl PBS) on days 18, 20 and 22, both intra-peritoneal. The volume of the tumor was determined by measuring the length (Lg), the width (Wi) of the tumor and by calculating (Lg*(Wi*Wi)/2.

For CCNCc1nc2c(N)nc3ccccc3c2n1CC(C)(C)O [Gardiquimod], the “increase in reduction of Alamar blue versus unstimulated cells” value (A549 cells [1]) was 20%, the “proportion of cells in G0/G1 or G2/M phases versus unstimulated cells” value (A549 cells [2]) was “did not observe any significant differences” and the “Bcl-2 expression compared to untreated cells” value [3] was “increased expression of Bcl-2”. The “increase in Bcl-2 expression” value [4] was 100 fold, the “genes down-regulated in both SK-MES and A549 cells” value (A549 and SK-MES cells [5]) was “Prolactin (PRL), CD80, Fibronectin-1 (FN-1), A Disintegrin And Metalloproteinase with ThromboSpondin motif 1 (ADAMTS1), and Serpin Peptidase Inhibitor Clade C1 (SERPINC1)” and the “genes up-regulated in A549 cells, but down-regulated in SK-MES cells” value (A549 and SK-MES cells [5]) was “Angiopoietin like 3 (ANGPTL3), Serpin Peptidase Inhibitor Clade F1 (SERPINF1), and Angiopoietin 1 (ANGPT1)”. The “genes up-regulated in SK-MES, but down-regulated in A549 cells” value (A549 and SK-MES cells [5]) was “ANGPTL1, Platelet Factor 4 (PF4), and fms related tyrosine kinase 4 (FLT4)” and the “genes up-regulated in both SK-MES and A549 cells” value (A549 and SK-MES cells [5]) was “Bcl-2, CCR4, and Vasohibin-1 (VASH-1)”.
Compound COc1cccc2c1C(=O)c1c(O)c3c(c(O)c1C2=O)C[C@@](O)(C(=O)CO)C[C@@H]3O[C@H]1C[C@H](N)[C@H](O)[C@H](C)O1 [doxorubicine] has an LD50 [6] of 0.002 µM.
For C[C@@H]1C[C@@H]([C@H](O)CC2CC(=O)NC(=O)C2)C(=O)[C@@H](C)C1 [cycloheximide], the “increase in the percentage of dead cells (positive controls)” value (A549 cells [7]) was 2.5 fold and the “proportion of cells in G0/G1 or G2/M phases versus unstimulated cells” value (A549 cells [2]) was “significant reduction in the percentage of cells in G0/G1 or G2/M”.
With [NH2][Pt]1([NH2])[O]C(=O)C2(CCC2)C(=O)[O]1 [carboplatine] the “reduction in cell viability by chemotherapy, comparison of drugs” value (A549 and SK-MES cells [8]) was “more potent inducers of cell death” and the LD50 [6] was 100 µM.
For CCC1=C[C@@H]2CN(C1)Cc1c([nH]c3ccccc13)[C@@](C(=O)OC)(c1cc3c(cc1OC)N(C)[C@H]1[C@@](O)(C(=O)OC)[C@H](OC(C)=O)[C@]4(CC)C=CCN5CC[C@]31[C@@H]54)C2 [Navelbine], the LD50 [6] was 50 µM.
With TNFα the “first wave of IκBα phosphorylation, associated with IκBα degradation” value [9] was “ten”, the “second wave of IκBα phosphorylation, not associated with IκBα degradation” value [9] was “sixty” and the “IκBα degradation / type of NF-κB activation” value ([9]; loxoribine or Poly U 10 μg/ml) was “IκBα phosphorylation and degradation”.
In the case of COc1cc([C@@H]2c3cc4c(cc3[C@@H](O[C@@H]3O[C@@H]5CO[C@@H](C)O[C@H]5[C@H](O)[C@H]3O)[C@H]3COC(=O)[C@H]23)OCO4)cc(OC)c1O [etoposide], the “increase in the percentage of dead cells (positive controls)” value (A549 cells [7]) is reported as 2.5 fold and the “proportion of cells in G0/G1 or G2/M phases versus unstimulated cells” value (A549 cells [2]) is reported as “significant reduction in the percentage of cells in G0/G1 or G2/M”.
With [NH2][Pt]([NH2])([Cl])[Cl] [cisplatine] the “reduction in cell viability by chemotherapy, comparison of drugs” value (A549 and SK-MES cells [8]) was “more potent inducers of cell death”, the LD50 [6] was 100 µM and the “factor of reduction of tumor size by chemotherapy” value (A549 cells [10]; Loxoribine-stimulated group) was 1.6 factor. The “factor of reduction of tumor size by chemotherapy” value (A549 cells [10]; NS group) was 3 factor and the “tumor volume seven weeks after injection of tumor cells” value (A549 cells [10]; NS group, cisplatine 2 mg/kg/injection i.p. days 18, 20, 22) was 0.6 cm^3.
